Data set [1] deals with OVCA cells.
From the text: For all above experiments, DOX will be added directly to cells as a positive control after determining the optimal concentration of the drug to be used to cause at least 70% cytotoxicity. […] Negative controls include (1) absence of ROS either by not activating macrophages; and (2) addition of nanocarriers devoid of DOX but with generation of ROS. Data will be collected in triplicates and comparisons will be done using a non-parametric Welch's two sample t-test where any p-value below 0.05 will be considered statistically significant.
However, for the nanocarriers, 72 hr may allow internalization of the nanocarriers and release of DOX regardless of presence of ROS.
Data set [2] has as its system macrophages. Kind of data set: Generation of ROS by activated macrophages (CellROX, flow cytometry). It counts as cell-based. As to conditions: PMA 1 μM for 30 minutes, 5 μM CellROX. As for the experimental part: H36.12j and RAW264.7 macrophages cell line was obtained from American Type Cell Culture (ATCC, Manassas, Va.). H36.12j cells were grown in Delbecco's Modified Eagles Medium (ATTC, Manassas, Va.) supplemented with 10% (v/v) Heat-inactivated iron bovine calf serum. Propagation was at 37° C. in 5% carbon dioxide. RAW264.7 cells were grown in Delbecco's Modified Eagles Medium (ATTC, Manassas, Va.) supplemented with 10% (v/v) fetal bovine serum. Propagation was at 37° C. in 10% carbon dioxide.
Cells (0.2×10^6 in 500 uL media) were pipetted into each well of 24-well plate. Cells were stimulated with phorbol-12-myristate-13-acetate (PMA), (Sigma—Saint Louis, Mo.) at a final concentration of 1 μM for 30 minutes, followed by an incubation with 5 μM CellROX (Invitrogen) for 30 minutes to detect ROS. Fluorescence was then determined by flow cytometry.
(In general: In flow cytometry, cells or beads pass a laser one at a time.)

Data set [3] can be described thus: Photochemical ozone production catalyzed by amino acids in cell-free system (indigo carmine absorbance at 610 nm). As to conditions: for Ozone production: 1 mM amino acid or 5 mg/mL BSA, 10 μM 6-biopterin, UVA irradiation, 30 μM indigo carmine. As for the experimental part: FIG. 4. Ozone production catalyzed by amino acids in cell-free system in presence of 10 μM 6-biopterin and with UVA irradiation. Tubes also contained 30 μM indigo carmine which got converted by ozone to isatin sulfonic acid as detected by a decrease in absorbance at 610 nm. 1 mM of each amino acid and 5 mg/mL BSA in phosphate buffer were tested. Error bars represent standard deviation for three replicates.
FIG. 5. Both UVA and 6BP are required to generate ozone by tryptophan. 1 mM Trp was tested. Error bars represent standard deviation for three replicates.
FIG. 6. Dose response curve for generation of ozone by increasing concentrations of Trp. Tested concentrations were 0, 10, 20, 40, 80 & 160, 500, 1000 μM tryptophan. Higher concentrations 500 μM and 1 mM Trp are not shown as they gave similar results to 160 μM. Error bars represent standard deviation for three replicates.
We successfully generated ozone (a molecule with the chemical signature of ozone) in a cell-free system by employing a photochemical source i.e. by adding a photosensitizer and exposing the tube contents to UVA irradiation. Our findings are summarized in this section. Four amino acids (tryptophan, methionine, cysteine, and histidine), but not other amino acids were reported to have the same catalytic activity as antibodies needed for water oxidation to produce ozone along with increasing bactericidal activity of neutrophils by employing a photochemical source. For our preliminary studies we used amino acids as the simplest mechanism to generate ozone. The photosensitizer we used is 6-biopterin (Sigma-Aldrich, St Louis, Mo.), and the UVA irradiation (315-400 nm) was provided by an ozone-free 1000W Xenon arc lamp as a solar simulator with blocking UVB radiation by appropriate filters (Oriel Instruments, Stratford, Conn.). The output of UVA radiation was confirmed and was measured by a UV meter (Model 3D, Solar Light, Glenside, Pa.) to be 6 mW/cm^2; we exposed the samples for 4 minutes. Ozone was detected through its conversion of indigo carmine (a blue dye with absorbance maximum at 610 nm) to isatin sulfonic acid (colorless) as we monitored this conversion by measuring absorbance at 610 nm as previously described.
The platform we plan to use employs supported lipid bilayers (SLBs) on porous silica. We will test the disruption of SLBs by ozone employing the above described system to generate ozone photochemically by Trp. […] Disruption of the SLB by TX 100 caused release of the encapsulated fluorescein (14 fold increase in fluorescence by TX100 vs. untreated spheres).

Data set [4] in a line: Disruption of supported lipid bilayer on porous silica spheres by Triton X-100, release of fluorescein. The following applies: 5% (w/v) Triton X-100; 3 μm porous silica spheres, egg PC bilayer, supernatant fluorescence. As for the experimental part:
FIG. 7. Disruption of lipid bilayer by Triton X-100. 3 μm silica spheres with 50 Å nominal pore size were incubated with 5 mM fluorescein then coated with a lipid bilayer made of egg phosphatidyl choline. Part of spheres was left with no treatment, and part was treated with Triton X-100 (TX 100) at a final concentration of 5% (w/v). Fluorescence of the supernatant after sedimenting the spheres was examined to check for release of fluorescein.
The platform we plan to use employs supported lipid bilayers (SLBs) on porous silica. We will test the disruption of SLBs by ozone employing the above described system to generate ozone photochemically by Trp. For detecting disruption of the SLB we tested the proof-of-concept by adding Triton X-100 (TX 100) to spheres encapsulating fluorescein within 3 microns porous silica (Macherey-Nagel, Germany) followed by forming the SLB as previously described (FIG. 7). Disruption of the SLB by TX 100 caused release of the encapsulated fluorescein (14 fold increase in fluorescence by TX100 vs. untreated spheres).

Take `COc1cccc2c1C(=O)c1c(O)c3c(c(O)c1C2=O)C[C@@](O)(C(=O)CO)C[C@@H]3O[C@H]1C[C@H](N)[C@H](O)[C@H](C)O1` [DOX, doxorubicin]: the “Cytotoxicity (cell death)” value in data set [1] is listed as 96%. In addition, in data set [1] (1 μM DOX, 24 hr incubation), the Cytotoxicity is listed as around 45%.

For `CCCCCCCCCCCCCC(=O)O[C@@H]1[C@@H](C)[C@@]2(O)[C@@H](C=C(CO)C[C@]3(O)C(=O)C(C)=C[C@@H]23)[C@@H]2C(C)(C)[C@]12OC(C)=O` [PMA, phorbol-12-myristate-13-acetate], in data set [2], the “Generation of ROS by macrophages” value is on record as “ROS was generated”.

As to `N[C@@H](Cc1c[nH]c2ccccc12)C(=O)O` [tryptophan], in data set [3] (0-1000 μM tryptophan), the “Conversion of singlet oxygen to ozone, dose response” value is “dose-dependent manner”. The Ozone production entry in data set [3] is on record as “photochemically generated ozone”; in data set [3] (listed as Tryptophan), “highest level of ozone”. Besides, the “Water oxidation (ozone generation) by tryptophan alone” value in data set [3] (without 6-biopterin and UVA exposure, 1 mM Trp) is given as “not capable of water oxidation”.

Consider Triton X-100 [TX 100], for which the “Increase in fluorescence (release of encapsulated fluorescein) vs. untreated spheres” value in data set [4] was determined as 14 fold.

These data come from US9532949B2, “Intraperitoneally-administered nanocarriers that release their therapeutic load based on the inflammatory environment of cancers” (STC.UNM, priority 2011, dated 2017).
